Results as given in patent US5674867A, “Indolocarbazole derivatives and therapeutic method for stimulating megakaicyocyte production” (Kyowa Hakko Kogyo Co., Ltd., priority 1992, dated 1997).

Assays:
[1] = system: bone marrow cells (megakaryocyte colony formation); test: Megakaryocyte colony formation-stimulating activity (ACHE-stained colonies, bone marrow cells with IL-3); assay type: cell-based, BALB/c mouse; conditions: with IL-3 100 U/ml, 7 days
Experimental: An eight-weeks-old BALB/c mouse was killed. Its femurs and cervical vertebrae were taken out, and both end sections thereof were cut off. Bone marrow cells were collected from the pieces cut off from the femurs and cervical vertebrae using a syringe containing IMDM (430-2200EA prepared by Gibco Co.), and then blown into a test tube. The test tube was allowed to stand for 5 minutes, and the supernatant was collected with a pipet. To a reaction mixture comprising the bone marrow cells (50,000 cells), bovine serum albumin (2%: A4508 made by Sigma Co.), transferrin (600 μg/ml 652202 made by Boehringer Mannheim Co.), IL-3 (100 U/ml), cholesterol (16 μg/ml: 036-0641 made by Wako Co.) and agar (0.6%: 0142-02 made by Difco Laboratories) were separately added the test compounds at various concentrations, and 1 ml each of the mixtures was put into a 35-mm dish (Lux Co.), followed by incubation under the conditions of 37° C., 5% CO2 and a humidity of 95% or more for 7 days. Separately, IL-3 alone was added to the bone marrow cells to prepare a control, whereas a positive control was prepared by adding 200 U/ml IL-6 to the above-mentioned reaction mixture. After the incubation was completed, the agar was dried over a filter paper (1001-055 made by Whatman Co.) and then fixed with 2.5% glutaraldehyde, followed by acetylcholinesterase staining (ACHE staining).
The ACHE staining was carried out by the method described below.
ACHE staining: To each sample was added a solution comprising 0.67 mg/ml acetylthiocholine iodide, 2.94 mg/ml sodium citrate, 7.5 mg/ml copper (II) sulfate and 1.65 mg/ml potassium ferricyanide, and the mixture was allowed to stand at room temperature in the dark for 4-6 hours.
A group of 4 or more megakaryocytes which were stained reddish brown was regarded as a colony, and the number of colonies per dish was calculated using a microscope. The results are shown in Table 2 as relative values to the control.

[2] = Acute toxicity test; conditions: mouse, in vivo, ip; male DDY mice, intraperitoneal, survival after 24 hours; read-out: LD50 (50% survival dose)
Experimental: To 6-weeks-old male DDY mice (3 per group) was intraperitoneally administered 0.2 ml of a solution of a test compound in a phosphate-buffered physiological saline. The 50% survival doses (LD50) were calculated from the survival rate after 24 hours. The LD50 for Compounds I-1, 17, 25, 26, 30-33, 35, 40 and 52 was >1 mg/kg, while that for all the other compounds was >30 mg/kg.

| Compound | LD50 at 24 h [2] | Relative value (megakaryocyte colonies, control = 100) ([1]; 0.1 nM) | Relative value (megakaryocyte colonies, control = 100) ([1]; 1 nM) | Relative value (megakaryocyte colonies, control = 100) ([1]; 10 nM) | further results |
| --- | --- | --- | --- | --- | --- |
| CN[C@@H]1C[C@H]2O[C@@](C)([C@@H]1OC)n1c3ccccc3c3c4c(c5c6ccccc6n2c5c31)C(=O)NC4 [Compound I-17, staurosporine] | > 1 mg/kg | – | – | – | Relative value (megakaryocyte colonies, control = 100) ([1]; 1.0 pM): 119; Relative value (megakaryocyte colonies, control = 100) ([1]; 10 pM): 107 |
| CCCN(C)C1CC2OC(C)(C1OC)n1c3ccccc3c3c4c(c5c6ccccc6n2c5c31)C(=O)NC4 (stereo not shown) [Compound I-26] | > 1 mg/kg | 108 | 121 | 111 | – |
| CNC1CC2OC(C)(C1OC)n1c3ccc(C(C)=O)cc3c3c4c(c5c6cc(C(C)=O)ccc6n2c5c31)C(=O)NC4 (stereo not shown) [Compound I-31] | > 1 mg/kg | 76 | 94 | 109 | – |
| COC1C(N(C)C)CC2OC1(C)n1c3ccccc3c3c4c(c5c6ccccc6n2c5c31)C(=O)NC4 (stereo not shown) [Compound I-25] | > 1 mg/kg | 119 | 124 | 100 | – |
| CNC1CC2OC(C)(C1OC)n1c3ccccc3c3c4c(c5c6cc(C(C)=O)ccc6n2c5c31)C(=O)NC4 (stereo not shown) [Compound I-30] | > 1 mg/kg | 111 | 119 | 117 | – |
| CCCOc1ccc2c(c1)c1c3c(c4c5ccccc5n5c4c1n2C1CC(NC)C(OC)C5(C)O1)CNC3=O (stereo not shown) [Compound I-33] | > 1 mg/kg | 101 | 114 | 105 | – |
| COC(=O)C1(O)CC2OC1(C)n1c3ccccc3c3c4c(c5c6ccccc6n2c5c31)C(=O)NC4 (stereo not shown) [Compound I-35, K-252a] | > 1 mg/kg | – | – | – | Relative value (megakaryocyte colonies, control = 100) ([1]; 1.0 pM): 130; Relative value (megakaryocyte colonies, control = 100) ([1]; 10 pM): 140 |
| COC(=O)C1(OC)CC2OC1(C)n1c3ccc(Br)cc3c3c4c(c5c6cc(Br)ccc6n2c5c31)C(=O)NC4 (stereo not shown) [Compound I-40] | > 1 mg/kg | 109 | 125 | 114 | – |
| CNC1CC2OC(C)(C1OC)n1c3ccc(C=O)cc3c3c4c(c5c6cc(C=O)ccc6n2c5c31)C(=O)NC4 (stereo not shown) [Compound I-32] | > 1 mg/kg | 76 | 94 | 109 | – |
| CCCCOC(=O)C1(O)CC2OC1(C)n1c3ccccc3c3c4c(c5c6ccccc6n2c5c31)C(=O)NC4=O (stereo not shown) [Compound I-43] | – | 81 | 118 | 87 | – |
| COC(=O)C1(OC(C)=O)CC2OC1(C)n1c3ccccc3c3c4c(c5c6cc(C(C)=O)ccc6n2c5c31)C(=O)N(C(C)=O)C4 (stereo not shown) [Compound I-37] | – | 82 | 124 | 114 | – |
| CCCOc1ccc2c(c1)c1c3c(c4c5ccccc5n5c4c1n2C1CC(O)(C(=O)OC)C5(C)O1)CNC3=O (stereo not shown) [Compound I-6] | – | – | 132 | – | Relative value (megakaryocyte colonies, control = 100) ([1]; 0.01 nM): 112; Relative value (megakaryocyte colonies, control = 100) ([1]; 100 nM): 117 |
| CNC1CC2OC(C)(C1OC)n1c3ccccc3c3c4c(c5c6cc(O)ccc6n2c5c31)C(=O)NC4 (stereo not shown) [Compound I-52] | > 1 mg/kg | – | – | – | – |
| CCCOc1ccc2c(c1)c1c3c(c4c5ccccc5n5c4c1n2C1CC(OC)(C(=O)OC)C5(C)O1)CN(C)C3=O (stereo not shown) [Compound I-38] | – | 112 | 111 | 136 | – |
| COC(=O)C1(OC(C)=O)CC2OC1(C)n1c3ccccc3c3c4c(c5c6ccccc6n2c5c31)C(=O)N(C(C)=O)C4 (stereo not shown) [Compound I-8] | – | – | 118 | – | Relative value (megakaryocyte colonies, control = 100) ([1]; 0.01 nM): 95.6; Relative value (megakaryocyte colonies, control = 100) ([1]; 100 nM): 89.6 |
| IL-6: hematopoietic factor which stimulates the production of blood platelets; positive control | – | – | – | – | Relative value (megakaryocyte colonies, control = 100) ([1]; 200 U/ml, positive control): 117 |
| CNC1CC2OC(C)(C1OC)n1c3ccccc3c3c4c(c5c6ccccc6n2c5c31)C(=O)N(C)C4O (single isomer, unassigned) [Compound I-23b] | – | 114 | – | – | – |
| COC(=O)C1(OC)CC2OC1(C)n1c3ccccc3c3c4c(c5c6ccccc6n2c5c31)C(=O)NC4 (stereo not shown) [Compound I-36] | – | 130 | 172 | 173 | – |
